The values below come from US11136324B2, “Substituted imidazoles as apoptosis signal regulating kinase 1 inhibitors” (Jiangsu Hansoh Pharmaceutical Group Co., Ltd., priority 2017, dated 2021).

SMILES strings stand for the structures.

One data set concerns the target ASK1 kinase (Homo sapiens (Human), UniProt Q99683). As to the kind of experiment: ASK1 enzymatic test (TR-FRET). The data set is classed as biochemical. The note with it: ASK1 kinase activity. As for the experimental part: In this test, the fluorescence-resonance energy transfer (TR-FRET) method was used to determine the inhibition effect of the test compounds on ASK1 kinase activity, and the half maximal inhibitory concentration IC50 of the compounds on ASK1 kinase activity was obtained.
1) 1˜5 μL of ASK1 enzyme solution was added to a 384-well plate, and the final concentration of the enzyme was 0.220 nM.
2) 1˜5 μL of gradient-diluted compound solution was added.
3) 1˜5 μL of a substrate mixture containing substrate polypeptides (final concentration: 100˜5000 nM) and ATP (final concentration: 100˜1000 uM) were added.
4) The mixture was incubated at room temperature for 0.5 to 5 hours.
5) 10 μL of EDTA and test solution containing labeled antibody were added, and the plate was incubated at room temperature for 2 to 24 hours.
6) The fluorescence signal value of each well was determined by a microplate reader at about 615 nm and 665 nm.
7) The inhibition rate was calculated by the fluorescence signal value.
8) The IC50 of the compound was obtained by curve fitting according to the inhibition rate at different concentrations.
(TR-FRET usually uses a lanthanide donor and a delayed reading to cut background.)

The nature of data set [1]: Pharmacokinetic (PK) assay in mice. The data set is classed as in vivo. The settings on record: Balb/c male mice, single intragastric administration, 5 mg/kg, plasma; for AUC(0-t) / AUC(0-inf) / half-life / MRT / Cmax: mouse, po; for AUC(0-t): read-out: Area under curve AUC0-t; for AUC(0-inf): read-out: Area under curve AUC0-∞; for half-life: read-out: Half-life t1/2 (converted); for MRT: read-out: Mean residence time MRT; for Cmax: read-out: Plasma concentration Cmax. As for the experimental part: 2. Pharmacokinetic (PK) Assay in Mice
The pharmacokinetic test of the preferred examples of the present invention in mice was carried out in Balb/c male mice (Shanghai Jiesijie Laboratory Animal Co., LTD).
Administration mode: single intragastric administration.
Administration dosage: 5 mg/10 ml/kg.
Formulation: 0.5% CMC-Na, ultrasonic dissolution.
Sampling points: 0.5, 1, 2, 4, 6, 8 and 24 hours after administration.
1) 0.1 mL of blood was taken from the orbit, placed in a K2EDTA tube, and centrifuged for 5˜20 min at room temperature at 1000˜3000×g to separate the plasma, which was then stored at −80° C.
2) 160 μL of acetonitrile was added to 40 μL of plasma sample for precipitation, and then the mixture was centrifuged for 5˜20 minutes at 500˜2000×g.
3) 100 μL, of processed supernatant was taken and analyzed by LC/MS/MS assay to determine the concentration of the test compound.
LC-MS/MS Assay: • Liquid chromatography condition: Shimadzu LC-20AD pump • Mass spectrometry condition: AB Sciex API 4000 mass spectrometer • Chromatographic column: phenomenex Gemiu 5 μm C18 50×4.6 mm • Mobile phase: solution A was 0.1% aqueous formic acid solution, and solution B was acetonitrile • Flow rate: 0.8 mL/min • Elution time: 0-3.5 minutes gradient elution
The main parameters were calculated using WinNonlin 6.1.

Sequence of ASK1 kinase (Q99683 whole entry): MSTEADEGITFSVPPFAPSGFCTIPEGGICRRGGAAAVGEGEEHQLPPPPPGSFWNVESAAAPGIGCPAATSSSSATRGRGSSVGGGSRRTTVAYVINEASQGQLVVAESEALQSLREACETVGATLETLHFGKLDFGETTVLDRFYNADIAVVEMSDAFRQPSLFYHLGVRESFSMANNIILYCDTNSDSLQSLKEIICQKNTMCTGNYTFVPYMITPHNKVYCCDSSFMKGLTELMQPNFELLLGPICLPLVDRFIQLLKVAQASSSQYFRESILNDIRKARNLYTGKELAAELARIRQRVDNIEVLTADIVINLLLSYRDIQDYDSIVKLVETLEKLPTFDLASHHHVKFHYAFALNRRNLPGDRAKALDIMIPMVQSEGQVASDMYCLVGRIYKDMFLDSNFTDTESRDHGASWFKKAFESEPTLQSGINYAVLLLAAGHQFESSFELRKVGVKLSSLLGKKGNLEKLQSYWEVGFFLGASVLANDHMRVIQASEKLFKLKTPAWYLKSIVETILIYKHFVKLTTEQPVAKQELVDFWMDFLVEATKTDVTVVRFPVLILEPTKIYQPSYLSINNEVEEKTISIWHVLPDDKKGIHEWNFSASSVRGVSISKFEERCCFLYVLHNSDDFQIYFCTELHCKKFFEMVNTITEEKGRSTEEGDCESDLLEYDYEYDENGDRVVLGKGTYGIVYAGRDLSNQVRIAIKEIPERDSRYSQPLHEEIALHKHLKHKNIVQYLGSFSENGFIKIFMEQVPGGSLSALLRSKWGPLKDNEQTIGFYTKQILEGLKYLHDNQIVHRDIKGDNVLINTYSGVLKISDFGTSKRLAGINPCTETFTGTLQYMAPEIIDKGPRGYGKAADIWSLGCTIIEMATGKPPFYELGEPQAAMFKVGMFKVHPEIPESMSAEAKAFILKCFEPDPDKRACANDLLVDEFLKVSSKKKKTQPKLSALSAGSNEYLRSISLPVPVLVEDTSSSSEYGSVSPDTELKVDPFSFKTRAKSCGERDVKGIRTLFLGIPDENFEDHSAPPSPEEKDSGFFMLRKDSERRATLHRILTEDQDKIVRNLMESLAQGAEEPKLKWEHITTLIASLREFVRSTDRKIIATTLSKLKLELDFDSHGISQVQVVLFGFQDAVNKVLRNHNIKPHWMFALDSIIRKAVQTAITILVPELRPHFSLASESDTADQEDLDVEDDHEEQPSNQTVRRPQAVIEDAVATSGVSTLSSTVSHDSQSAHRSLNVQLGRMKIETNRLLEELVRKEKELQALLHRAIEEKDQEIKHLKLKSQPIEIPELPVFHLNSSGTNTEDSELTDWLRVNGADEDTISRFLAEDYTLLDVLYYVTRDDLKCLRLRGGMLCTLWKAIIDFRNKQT

Turning to `Cc1cc(F)c(C(=O)Nc2cccc(-c3nnc4n3CCC4)n2)cc1-n1cnc(C2CC2)c1` [Example 1, 5-(4-cyclopropyl-1H-imidazol-1-yl)-N-(6-(6,7-dihydro-5H-pyrrolo[2,1-c][1,2,4]triazol-3-yl)pyridin-2-yl)-2-fluoro-4-methylbenzamide], on ASK1 kinase, the IC50 turned out to be 6 nM. In addition, in data set [1], the Peak time tmax was 0.5 h, the AUC(0-t) came out at 104000 ng·h/mL, the AUC(0-inf) came out at 104000 ng·h/mL and the half-life was 2.9 h. For the same compound, in data set [1], the MRT was 4.2 h and the Cmax is 18300 ng/mL.
In turn, `Cc1cc(F)c(C(=O)Nc2cccc(-c3nnc4n3CCCCC4)n2)cc1-n1cnc(C2CC2)c1` [Example 2, 5-(4-Cyclopropyl-1H-imidazol-1-yl)-2-fluoro-4-methy 1-N-(6-(6,7,8,9-tetrahydro-5H-[1,2,4]triazolo[4,3-a]azepin-3-yl)pyridin-2-yl)benzamide] came in with an IC50 at ASK1 kinase of 9.3 nM.
On the same count and under the same terms, then `Cc1cc(F)c(C(=O)Nc2cccc(-c3nnc4n3CCCC4)n2)cc1-n1cnc(C2CC2)c1` [Example 3, 5-(4-Cyclopropyl-1H-imidazol-1-yl)-2-fluoro-4-methyl-N-(6-(5,6,7,8-tetrahydro-[1,2,4]triazolo[4,3-a]pyridin-3-yl)pyridin-2-yl)benzamide], with 13.4 nM; and `Cc1cc(F)c(C(=O)Nc2cccc(-c3nnc4n3CCOC4)n2)cc1-n1cnc(C2CC2)c1` [Example 4, 5-(4-Cyclopropyl-1H-imidazol-1-yl)-N-(6-(5,6-dihydro-8H-[1,2,4]triazolo[3,4-c][1,4]oxazin-3-yl)pyridin-2-yl)-2-fluoro-4-methylbenzamide], with 47.8 nM; and `O=C(Nc1cccc(-c2nnc3n2CCC3)c1)c1cc(-n2cnc(C3CC3)c2)ccn1` [Example 7, 4-(4-Cyclopropyl-1H-imidazol-1-yl)-N-(3-(6,7-dihydro-5H-pyrrolo[2,1-c][1,2,4]triazol-3-yl)phenyl)picolinamide], with 19.6 nM.
For the compound `Cc1cc(F)c(C(=O)Nc2cccc(-c3nnc4n3[C@H](C)CC4)n2)cc1-n1cnc(C2CC2)c1` [Example 8, (R)-5-(4-Cyclopropyl-1H-imidazol-1-yl)-2-fluoro-4-methyl-N-(6-(5-methyl-6,7-dihydro-5H-pyrrolo[2,1-c][1,2,4]triazol-3-yl)pyridin-2-yl)benzamide], the IC50 against ASK1 kinase turned out to be 1.8 nM. Moreover, in data set [1], the Peak time tmax came to 1 h, the AUC(0-t) came to 29700 ng·h/mL, the AUC(0-inf) worked out at 29800 ng·h/mL and the half-life was 2.7 h. Also, in data set [1], the MRT stood at 4.6 h and the Cmax was found to be 4810 ng/mL.
At ASK1 kinase, `Cc1cc(F)c(C(=O)Nc2cccc(-c3nnc4n3[C@@H](C)CC4)n2)cc1-n1cnc(C2CC2)c1` [Example 9, (S)-5-(4-Cyclopropyl-1H-imidazol-1-yl)-2-fluoro-4-methyl-N-(6-(5-methyl-6,7-dihydro-5H-pyrrolo[2,1-c][1,2,4]triazol-3-yl)pyridin-2-yl)benzamide] yielded an IC50 of 5 nM. Besides, in data set [1], the Peak time tmax amounted to 0.5 h, the AUC(0-t) was 38100 ng·h/mL, the AUC(0-inf) came to 38400 ng·h/mL and the half-life was 4.4 h. Besides, in data set [1], the MRT is 5.5 h and the Cmax stood at 4370 ng/mL.
`Cc1cc(F)c(C(=O)Nc2cccc(-c3nnc4n3CC(C3CC3)C4)n2)cc1-n1cnc(C2CC2)c1` (stereo not shown) [Example 30, 5-(4-Cyclopropyl-1H-imidazol-1-yl)-N-(6-(6-cyclopropyl-6,7-dihydro-5H-pyrrolo[2,1-c][1,2,4]triazol-3-yl)pyridin-2-yl)-2-fluoro-4-methylbenzamide]: on ASK1 kinase, the IC50 is 11.4 nM.
Still for that read-out and setting: the result for `Cc1cc(F)c(C(=O)Nc2cccc(-c3nnc4n3CC3(CC3)C4)n2)cc1-n1cnc(C2CC2)c1` [Example 31, N-(6-(5′H,7′H-Spiro[cyclopropane-1,6′-pyrrolo[2,1-c][1,2,4]triazol]-3′-yl)pyridin-2-yl)-5-(4-cyclopropyl-1H-imidazol-1-yl)-2-fluoro-4-methylbenzamide] reads 10.9 nM.
Consider `Cc1cc(F)c(C(=O)Nc2cccc(-c3nnc4n3C[C@@H](C)C4)n2)cc1-n1cnc(C2CC2)c1` [Example 35, (S)-5-(4-Cyclopropyl-1H-imidazol-1-yl)-2-fluoro-4-methyl-N-(6-(6-methyl-6,7-di hydro-5H-pyrrolo[2,1-c][1,2,4]triazol-3-yl)pyridin-2-yl)benzamide], for which, in data set [1], the Peak time tmax worked out at 1 h, the AUC(0-t) turned out to be 107000 ng·h/mL, the AUC(0-inf) was determined as 108000 ng·h/mL and the half-life was 3.7 h. In data set [1], the MRT was 5 h and the Cmax stood at 13500 ng/mL.
Consider `CO[C@H](C)[C@H]1CCc2nnc(-c3cccc(NC(=O)c4cc(-n5cnc(C6CC6)c5)c(C)cc4F)n3)n21` [Example 36, 5-(4-Cyclopropyl-1H-imidazol-1-yl)-2-fluoro-N-(6-((R)-5-((R)-1-methoxyethyl)-6,7-di hydro-5H-pyrrolo[2,1-c][1,2,4]triazol-3-yl)pyridin-2-yl)-4-methylbenzamide], for which 9.1 nM corresponded to half-maximal inhibition at ASK1 kinase (IC50).
Compound `C#CC1CCc2nnc(-c3cccc(NC(=O)c4cc(-n5cnc(C6CC6)c5)c(C)cc4F)n3)n21` (stereo not shown) [Example 44, 5-(4-Cyclopropyl-1H-imidazol-1-yl)-N-(6-(5-ethynyl-6,7-dihydro-5H-pyrrolo[2,1-c][1,2,4]triazol-3-yl)pyridin-2-yl)-2-fluoro-4-methylbenzamide] displayed an IC50 on ASK1 kinase of 3.6 nM.
Same read-out and setting: the result for `Cc1cc(F)c(C(=O)Nc2cccc(-c3nnc4n3[C@H](CC#N)CC4)n2)cc1-n1cnc(C2CC2)c1` [Example 48, (S)—N-(6-(5-(Cyanomethyl)-6,7-dihydro-5H-pyrrolo[2,1-c][1,2,4]triazol-3-yl)pyridin-2-yl)-5-(4-cyclopropyl-1H-imidazol-1-yl)-2-fluoro-4-methylbenzamide] reads 6.1 nM; that for `Cc1cc(F)c(C(=O)Nc2cccc(-c3nnc4n3[C@H](CO)CC4)n2)cc1-n1cnc(C2CC2)c1` [Example 50, (S)-5-(4-Cyclopropyl-1H-imidazol-1-yl)-2-fluoro-N-(6-(5-(hydroxymethyl)-6,7-dihydro-5H-pyrrolo[2,1-c][1,2,4]triazol-3-yl)pyridin-2-yl)-4-methylbenzamide], 9.6 nM.
Regarding `Cc1cc(F)c(C(=O)Nc2cccc(-c3nnc4n3[C@@H](CF)CC4)n2)cc1-n1cnc(C2CC2)c1` [Example 52, (R)-5-(4-Cyclopropyl-1H-imidazol-1-yl)-2-fluoro-N-(6-(5-(fluoromethyl)-6,7-dihydro-5H-pyrrolo[2,1-c][1,2,4]triazol-3-yl)pyridin-2-yl)-4-methylbenzamide], in data set [1], the Peak time tmax stood at 0.5 h, the AUC(0-t) turned out to be 70500 ng·h/mL, the AUC(0-inf) was determined as 70600 ng·h/mL and the half-life is 3 h. In addition, in data set [1], the MRT came to 4.7 h and the Cmax came out at 9970 ng/mL.
In turn, `Cc1cc(Cl)c(C(=O)Nc2cccc(-c3nnc4n3[C@H](C)CC4)n2)cc1-n1cnc(C2CC2)c1` [Example 53, (R)-2-Chloro-5-(4-cyclopropyl-1H-imidazol-1-yl)-4-methyl-N-(6-(5-methyl-6,7-dihydro-5H-pyrrolo[2,1-c][1,2,4]triazol-3-yl)pyridin-2-yl)benzamide] registered an IC50 against ASK1 kinase of 8.2 nM.
Same read-out and setting: the result for `Cc1cc(F)c(C(=O)Nc2cccc(-c3nnc4n3C3(CC4)CC3)n2)cc1-n1cnc(C(C)C)c1` [Example 62, N-(6-(6′,7′-Dihydrospiro[cyclopropane-1,5′-pyrrolo[2,1-c][1,2,4]triazol]-3′-yl)pyridin-2-yl)-2-fluoro-5-(4-isopropyl-1H-imidazol-1-yl)-4-methylbenzamide] reads 3 nM.
As for `Cc1cc2c(cc1-n1cnc(C3CC3)c1)C(=O)N(c1cccc(-c3nnc4n3CCC4)n1)C2` [Example 63, 6-(4-Cyclopropyl-1H-imidazol-1-yl)-2-(6-(6,7-dihydro-5H-pyrrolo[2,1-c][1,2,4]triazol-3-yl)pyridin-2-yl)-5-methylisoindolin-1-one], at ASK1 kinase, the midpoint of inhibition, the IC50, lay at 8.4 nM.

In general, IC50 refers to the concentration needed to halve the response being measured. Low readings indicate greater potency, high ones weaker potency. The MRT is the average time that molecules of a dose stay in the body.
